Measured values reported in PMC7905942 (ACS Omega, 2021).

Assays:
[1] = molecular target: T1, HDAC6 (Homo sapiens, UniProt Q9UBN7); experiment: HDAC6 enzyme assay; assay type: biochemical
T1 sequence (Q9UBN7 1-1215): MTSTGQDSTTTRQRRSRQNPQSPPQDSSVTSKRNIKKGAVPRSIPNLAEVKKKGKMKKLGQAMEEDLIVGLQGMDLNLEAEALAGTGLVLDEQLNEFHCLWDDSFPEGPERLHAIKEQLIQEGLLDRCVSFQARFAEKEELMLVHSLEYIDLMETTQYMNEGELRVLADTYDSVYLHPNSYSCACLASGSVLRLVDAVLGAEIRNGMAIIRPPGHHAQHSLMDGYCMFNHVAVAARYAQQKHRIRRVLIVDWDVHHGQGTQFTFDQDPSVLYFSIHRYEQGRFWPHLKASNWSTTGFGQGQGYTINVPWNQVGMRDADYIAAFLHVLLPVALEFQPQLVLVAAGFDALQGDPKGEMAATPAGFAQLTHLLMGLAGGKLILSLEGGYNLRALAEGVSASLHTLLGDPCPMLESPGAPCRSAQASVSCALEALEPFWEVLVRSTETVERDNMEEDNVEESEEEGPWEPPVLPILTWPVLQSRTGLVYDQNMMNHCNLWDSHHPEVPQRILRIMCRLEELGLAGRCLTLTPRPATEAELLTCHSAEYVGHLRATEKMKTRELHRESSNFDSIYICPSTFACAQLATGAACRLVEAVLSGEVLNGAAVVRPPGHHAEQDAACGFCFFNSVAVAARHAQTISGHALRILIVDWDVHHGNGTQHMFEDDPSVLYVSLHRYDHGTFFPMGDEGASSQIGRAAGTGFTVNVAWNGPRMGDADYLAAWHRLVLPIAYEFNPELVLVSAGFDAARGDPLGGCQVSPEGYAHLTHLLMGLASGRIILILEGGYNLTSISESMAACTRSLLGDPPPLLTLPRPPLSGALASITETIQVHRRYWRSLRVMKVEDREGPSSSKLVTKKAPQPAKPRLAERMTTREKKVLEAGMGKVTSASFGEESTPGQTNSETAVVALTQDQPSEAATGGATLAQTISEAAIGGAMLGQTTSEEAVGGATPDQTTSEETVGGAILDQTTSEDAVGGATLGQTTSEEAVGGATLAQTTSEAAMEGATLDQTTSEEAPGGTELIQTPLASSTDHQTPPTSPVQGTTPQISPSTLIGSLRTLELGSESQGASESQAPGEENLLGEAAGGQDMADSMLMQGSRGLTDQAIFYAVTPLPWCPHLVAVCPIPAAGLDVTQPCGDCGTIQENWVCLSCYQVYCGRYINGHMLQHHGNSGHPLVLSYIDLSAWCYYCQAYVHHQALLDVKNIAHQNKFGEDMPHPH

[2] = test system: NCI-H23 (lung cancer) cells; experiment: SRB cytotoxicity assay, NCI-H23; assay type: cell-based; conditions: Homo sapiens, NCI-H23, 48 h, read-out: Cytotoxicity IC50, NCI-H23
[3] = test system: PC3 (prostate cancer) cells; experiment: SRB cytotoxicity assay, PC3; assay type: cell-based; conditions: Homo sapiens, 48 h, read-out: Cytotoxicity IC50, PC3
[4] = test system: SW620 (colon cancer) cells; experiment: SRB cytotoxicity assay, SW620; assay type: cell-based; conditions: Homo sapiens, SW-620, 48 h, read-out: Cytotoxicity IC50, SW620
[5] = test system: SW620, PC3 and NCI-H23 cancer cell lines; experiment: SRB cytotoxicity, range over three human cancer cell lines; assay type: cell-based; conditions: read-out: Cytotoxicity IC50 values (range over cell lines)
[6] = test system: HDAC (Hela cell nuclear extract); assay type: biochemical; conditions: for fold higher HDAC IC50 than that of SAHA: Hela cell nuclear extract; for fold more potent than SAHA: HDAC inhibitory activity and cytotoxicity together
[7] = test system: SW620 human colon cancer cells; experiment: Cell cycle analysis by flow cytometry; assay type: cell-based; conditions: compounds 10 μM, SAHA 1 μM, 24 h, vehicle 6.29%
[8] = test system: SW620 human colon cancer cells; experiment: Annexin V-FITC/PI dual staining apoptosis assay; assay type: cell-based; conditions: 10 μM, 24 h

SMILES | IC50 [1] [nM] | IC50 [2] [nM] | IC50 [3] [nM] | IC50 [4] [nM] | other results
O=C(/C=C/c1ccc2c(=O)n(Cc3ccccc3)cnc2c1)NO [Compound 10h, (E)-3-(3-Benzyl-4-oxo-3,4-dihydroquinazolin-7-yl)-N-hydroxyacrylamide] | 40 ± 1 | 1180 ± 15 | 1320 ± 25 |  | 
O=C(/C=C/c1ccc2c(=O)n(CC3CCCCC3)cnc2c1)NO [Compound 10g, (E)-3-(3-(Cyclohexylmethyl)-4-oxo-3,4-dihydroquinazolin-7-yl)-N-hydroxyacrylamide] |  |  | 2540 ± 26 |  | fold lower HDAC6 IC50 than IC50 in Hela nuclear extract assay ([1]; HDAC6 vs total HDAC extract): 10 fold
CCCn1cnc2ccc(/C=C/C(=O)NO)cc2c1=O [Compound 9d, (E)-N-Hydroxy-3-(4-oxo-3-propyl-3,4-dihydroquinazolin-6-yl)acrylamide] |  | 1620 ± 74 | 2870 ± 224 |  | 
O=C(/C=C/c1ccc2c(=O)n(CC3CCCC3)cnc2c1)NO [Compound 10f, (E)-3-(3-(Cyclopentylmethyl)-4-oxo-3,4-dihydroquinazolin-7-yl)-N-hydroxyacrylamide] | 22 | 3160 ± 213 |  | 3210 ± 83 | 
O=C(/C=C/c1ccc2c(=O)n(Cc3ccc(F)cc3)cnc2c1)NO [Compound 10k, (E)-3-(3-(4-Fluorobenzyl)-4-oxo-3,4-dihydroquinazolin-7-yl)-N-hydroxyacrylamide] | 42 ± 1 | 1490 ± 18 | 1490 ± 23 |  | 
O=C(/C=C/c1ccc2c(=O)n(CCO)cnc2c1)NO [Compound 10c, (E)-N-Hydroxy-3-(3-(2-hydroxyethyl)-4-oxo-3,4-dihydroquinazolin-7-yl)acrylamide] | 96 ± 6 |  | 5050 ± 399 |  | 
O=C(/C=C/c1ccc2ncn(Cc3ccccc3F)c(=O)c2c1)NO [Compound 9i, (E)-3-(3-(2-Fluorobenzyl)-4-oxo-3,4-dihydroquinazolin-6-yl)-N-hydroxyacrylamide] |  | 659 ± 20 |  |  | IC50 [5]: 639 to 1120 nM
CCn1cnc2cc(/C=C/C(=O)NO)ccc2c1=O [Compound 10a, (E)-3-(3-Ethyl-4-oxo-3,4-dihydroquinazolin-7-yl)-N-hydroxyacrylamide] | 80 | 2350 ± 56 | 1681 ± 8 |  | 
O=C(/C=C/c1ccc2ncn(CC3CCCC3)c(=O)c2c1)NO [Compound 9f, (E)-3-(3-(Cyclopentylmethyl)-4-oxo-3,4-dihydroquinazolin-6-yl)-N-hydroxyacrylamide] |  | 952 ± 29 | 1220 ± 100 |  | 
O=C(/C=C/c1ccc2c(=O)n(Cc3cccc(F)c3)cnc2c1)NO [Compound 10j, (E)-3-(3-(3-Fluorobenzyl)-4-oxo-3,4-dihydroquinazolin-7-yl)-N-hydroxyacrylamide] | 23 | 1914 ± 6 | 1396 ± 9 |  | 
CCn1cnc2ccc(/C=C/C(=O)NO)cc2c1=O [Compound 9a, (E)-3-(3-Ethyl-4-oxo-3,4-dihydroquinazolin-6-yl)-N-hydroxyacrylamide] |  | 5787 ± 3 |  |  | IC50 [5]: 3200 to 7040 nM; fold higher HDAC IC50 than that of SAHA [6]: approximately 10 fold
O=C(/C=C/c1ccc2ncn(Cc3ccc(F)cc3)c(=O)c2c1)NO [Compound 9k, (E)-3-(3-(4-Fluorobenzyl)-4-oxo-3,4-dihydroquinazolin-6-yl)-N-hydroxyacrylamide] |  | 1370 ± 72 | 1040 ± 13 | 1900 ± 55 | 
O=C(/C=C/c1ccc2ncn(CC3CCCCC3)c(=O)c2c1)NO [Compound 9g, (E)-3-(3-(Cyclohexylmethyl)-4-oxo-3,4-dihydroquinazolin-6-yl)-N-hydroxyacrylamide] |  | 1291 ± 3 | 997 ± 18 |  | 
O=C(/C=C/c1ccc2ncn(CCCl)c(=O)c2c1)NO [Compound 9b, (E)-3-(3-(2-Chloroethyl)-4-oxo-3,4-dihydroquinazolin-6-yl)-N-hydroxyacrylamide] |  |  | 3970 ± 391 | 4040 ± 53 | IC50 [5]: 3200 to 7040 nM; fold higher HDAC IC50 than that of SAHA [6]: ~20 fold
CCCn1cnc2cc(/C=C/C(=O)NO)ccc2c1=O [Compound 10d, (E)-N-Hydroxy-3-(4-oxo-3-propyl-3,4-dihydroquinazolin-7-yl)acrylamide] | 48 ± 2 | 1900 ± 53 | 1500 ± 135 |  | 
Cc1ccc(Cn2cnc3cc(/C=C/C(=O)NO)ccc3c2=O)cc1 [Compound 10m, (E)-N-Hydroxy-3-(3-(4-methylbenzyl)-4-oxo-3,4-dihydroquinazolin-7-yl)acrylamide] | 47 ± 1 | 769 ± 9 | 1210 ± 50 | 898 ± 47 | IC50 [5]: 671 to 1210 nM; cells in G2/M phase [7]: 30.11%; induction of apoptosis (in words) [8]: substantially induced both early and late apoptosis; fold more potent than SAHA [6]: 2- to 3 fold
O=C(/C=C/c1ccc2ncn(CCO)c(=O)c2c1)NO [Compound 9c, (E)-N-Hydroxy-3-(3-(2-hydroxyethyl)-4-oxo-3,4-dihydroquinazolin-6-yl)acrylamide] |  | 4309 ± 40 | 4650 ± 171 | 3670 ± 67 | 
O=C(/C=C/c1ccc2c(=O)n(Cc3ccccc3F)cnc2c1)NO [Compound 10i, (E)-3-(3-(2-Fluorobenzyl)-4-oxo-3,4-dihydroquinazolin-7-yl)-N-hydroxyacrylamide] | 25 ± 1 | 2100 ± 132 | 1950 ± 66 |  | 
O=C(/C=C/c1ccc2ncn(Cc3ccc(Cl)cc3)c(=O)c2c1)NO [Compound 9l, (E)-3-(3-(4-Chlorobenzyl)-4-oxo-3,4-dihydroquinazolin-6-yl)-N-hydroxyacrylamide] |  | 1660 ± 28 | 1370 ± 30 |  | 
O=C(/C=C/c1ccc2ncn(Cc3cccc(F)c3)c(=O)c2c1)NO [Compound 9j, (E)-3-(3-(3-Fluorobenzyl)-4-oxo-3,4-dihydroquinazolin-6-yl)-N-hydroxyacrylamide] |  | 1669 ± 5 | 1280 ± 13 | 2060 ± 58 | 
O=C(/C=C/c1ccc2c(=O)n(CCCl)cnc2c1)NO [Compound 10b, (E)-3-(3-(2-Chloroethyl)-4-oxo-3,4-dihydroquinazolin-7-yl)-N-hydroxyacrylamide] | 322 ± 13 | 7660 ± 691 | 5550 ± 231 |  | 
Cc1ccc(Cn2cnc3ccc(/C=C/C(=O)NO)cc3c2=O)cc1 [Compound 9m, (E)-N-Hydroxy-3-(3-(4-methylbenzyl)-4-oxo-3,4-dihydroquinazolin-6-yl)acrylamide] |  | 1380 ± 30 | 1260 ± 26 |  | 
CCCCn1cnc2cc(/C=C/C(=O)NO)ccc2c1=O [Compound 10e, (E)-3-(3-Butyl-4-oxo-3,4-dihydroquinazolin-7-yl)-N-hydroxyacrylamide] | 29 | 2749 ± 16 | 2860 ± 94 | 3685 ± 27 | 
CCCCn1cnc2ccc(/C=C/C(=O)NO)cc2c1=O [Compound 9e, (E)-3-(3-Butyl-4-oxo-3,4-dihydroquinazolin-6-yl)-N-hydroxyacrylamide] |  | 1450 ± 15 | 1689 ± 14 | 1960 ± 103 | 
O=C(/C=C/c1cccc(S(=O)(=O)Nc2ccccc2)c1)NO [Belinostat, belinostat, reference compound] |  |  | 2530 ± 170 |  | 
O=C(/C=C/c1ccc2c(=O)n(Cc3ccc(Cl)cc3)cnc2c1)NO [Compound 10l, (E)-3-(3-(4-Chlorobenzyl)-4-oxo-3,4-dihydroquinazolin-7-yl)-N-hydroxyacrylamide] | 33 | 899 ± 45 | 767 ± 25 |  | IC50 [5]: 671 to 1210 nM; cells in G2/M phase [7]: 26.70%; induction of apoptosis (in words) [8]: substantially induced both early and late apoptosis; fold more potent than SAHA [6]: 2- to 3 fold
